US7563799B2, “Substituted pyrazolo[3,4-D]pyrimidines as p38 map kinase inhibitors” (Roche Palo Alto LLC, priority 2005, dated 2009)

Key:
[1] = molecular target: T1, p38 MAP kinase (Homo sapiens, UniProt Q16539); experiment: p38 (MAP) kinase in vitro assay (transfer of γ-33P from ATP to Myelin Basic Protein); assay type: biochemical; settings: phosphorylated recombinant p38 MAP kinase, MBP substrate, γ-33P-ATP, 30° C.
T1 construct: made in house; host or cells: E. coli (co-expressed with SEK-1 and MEKK)
T1 sequence (Q16539 whole entry): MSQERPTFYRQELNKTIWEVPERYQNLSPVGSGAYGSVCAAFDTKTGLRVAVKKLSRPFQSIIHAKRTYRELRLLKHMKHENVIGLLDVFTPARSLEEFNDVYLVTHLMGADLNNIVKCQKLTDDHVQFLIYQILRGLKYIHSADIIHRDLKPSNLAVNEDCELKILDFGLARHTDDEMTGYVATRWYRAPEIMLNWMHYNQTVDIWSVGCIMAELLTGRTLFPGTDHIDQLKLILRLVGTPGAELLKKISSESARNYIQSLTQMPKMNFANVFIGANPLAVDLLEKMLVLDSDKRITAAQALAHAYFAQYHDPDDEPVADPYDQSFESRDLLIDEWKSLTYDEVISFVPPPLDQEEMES
Experimental: This example illustrates a p38 (MAP) kinase in vitro assay useful for evaluating the compounds of the invention.
The p38 MAP kinase inhibitory activity of compounds of this invention in vitro was determined by measuring the transfer of the γ-phosphate from γ-^33P-ATP by p-38 kinase to Myelin Basic Protein (MBP), using a minor modification of the method described in Ahn, et al., J. Biol. Chem. 266:4220-4227 (1991).
The phosphorylated form of the recombinant p38 MAP kinase was co-expressed with SEK-1 and MEKK in E. Coli (see, Khokhlatchev, et al., J. Biol. Chem. 272:11057-11062 (1997)) and then purified by affinity chromatography using a Nickel column.
The phosphorylated p38 MAP kinase was diluted in kinase buffer (20 mM 3-(N-morpholino)propanesulfonic acid, pH 7.2, 25 mM β-glycerol phosphate, 5 mM ethylene glycol-bis(beta-aminoethyl ether)-N,N,N′,N′-tetraacetic acid, 1 mM sodium ortho-vanadate, 1 mM dithiothreitol, 40 mM magnesium chloride). Test compound dissolved in DMSO or only DMSO (control) was added and the samples were incubated for 10 min at 30° C. The kinase reaction was initiated by the addition of a substrate cocktail containing MBP and γ-^33P-ATP. […] The phosphorylated MBP was then separated from the residual γ-^33P-ATP using a phosphocellulose membrane (Millipore, Bedfrod, Mass.) and quantitated using a scintillation counter (Packard, Meriden, Conn.).

| Structure (SMILES) | melting point [°C] | IC50 [1] [nM] |
| --- | --- | --- |
| CS(=O)(=O)c1ccc(Cl)c(-c2n[nH]c3nc(Oc4ccc(F)cc4F)ncc23)c1 [Compound 2, 3-(2-Chloro-5-methanesulfonyl-phenyl)-6-(2,4-difluoro-phenoxy)-1H-pyrazolo[3,4-d]pyrimidine] | 251.6 to 252.2 |  |
| CS(=O)(=O)c1ccc(Cl)c(-c2n[nH]c3nc(Oc4ccc(F)cc4F)nc(NC(CO)CO)c23)c1 [Compound 4, 2-[3-(2-Chloro-5-methanesulfonyl-phenyl)-6-(2,4-difluoro-phenoxy)-1H-pyrazolo[3,4-d]pyrimidin-4-ylamino]-propane-1,3-diol] |  | ~2 |
| Cc1ccc(S(C)(=O)=O)cc1-c1n[nH]c2nc(Oc3ccc(F)cc3F)ncc12 [Compound 5, 6-(2,4-Difluoro-phenoxy)-3-(5-methanesulfonyl-2-methyl-phenyl)-1H-pyrazolo[3,4-d]pyrimidine] | 133 to 135 |  |
